Data published in patent US5493007A, “Platelet aggregation inhibitors having high specificity for GPIIBIIIA” (Genentech, Inc., priority 1994, dated 1996).
Where a SMILES comes first, the peptide text is derived from it. Bridges are numbered along the chain shown (N, C = ends). [ ]: non-standard residue; d: D form. Pen = CC(C)(S)[C@H](N)C(=O)O

Legend:
[1] = tested on: platelet rich plasma (PRP); assay: Rabbit ex-vivo platelet aggregation (XPA), ADP-induced; format: in vivo; details: Example 1
Description: Catheters are flushed and locked after every sample.
[…] of PRP is placed in a disposable glass cuvette with a stir bar. The cuvette is placed in the temperature regulated light path of a light transmittance aggregometer (Chrono-log) and equilibrated to a 37° C. Baseline transmittance is recorded for 30 seconds, after which […] of ADP (1 mM) is added and the change in transmittance recorded. The maximum change from baseline (dT) is noted for each sample. The extent of inhibition of XPA that is produced by an inhibitor is calculated for each animal as follows: Mean dTs are calculated for the pre and post infusion values, and then, percent inhibition is calculated as (1-dt (post)/ddt (pre))×100.

[2] = tested on: New Zealand White rabbits; assay: Rabbit cutaneous bleeding time (CBT); details: for Rabbit BT Ratio: Example 1, at the % P.A. inhibition given
Description: Unanesthetized male New Zealand White rabbits (2.5-3.5 kg) are placed in a standard rabbit restrainer. Ears are shaved and a 20 G Teflon catheter with flowswitch (Viggo) is placed in the medial artery, flushed with saline and locked with 1 ml of heparinized saline (10 m/ml). A 22 G catheter (Abbott) fitted with an injection cap (Medex) is placed in the marginal vein of the same ear. Saline or a GP IIb IIIa receptor antagonist, at a concentration of 1 to 3 mg/ml, is infused via the venous catheter. At time 0, 41% of the dose is given as a bolus over 2 minutes. The remainder is continuously infused over the following 60 minutes. Blood samples (3.2 ml) are collected into syringes without needles via the arterial catheter at -10, -5, 10, 45, and 60 minutes. The first 0.5 ml is discarded and the following 2.7 ml is collected directly into a syringe containing 0.3 ml of 3.8% sodium citrate. The sample is divided into 1.5 ml aliquots and centrifuged at room temperature for 5 seconds at 12,000 G. The resulting platelet rich plasma (PRP) is used to measure ex-vivo platelet aggregation (XPA). At -10 and 60 minutes an additional 1 cml sample is drawn for an automated blood count (Baker instruments). Catheters are flushed and locked after every sample.
CBT is measured at -10, -5, 10, and 45 minutes on the opposite ear, using an automated incision-making instrument (Surgicutt®, ITD). An incision (5mm×1 mm deep) is made on the dorsal surface of the ear at sites not supplied by major blood vessels. Blood is blotted away with absorbent paper placed near the incision site, every 2 to 15 seconds, to a maximum of 15 minutes. Cessation of bleeding is defined as no blood forming at the incision site for 15 seconds. The range of duplicate CBT in 40 normal rabbits was 0.88 to 3.38 minutes.

[3] = target: T1, Vitronectin Receptor (αvβ3) (Homo sapiens, UniProt P05106+P06756); assay: Human Vitronectin-Vitronectin Receptor (αvβ3) ELISA Assay; format: binding; details: purified human αvβ3, vitronectin-coated plates; read-out: ELISA IC50 Vitronectin VnR
T1 construct: Human vitronection receptor (VnR) is purified from human placenta; from tissue; host or cells: human placenta
T1 sequence (P06756 31-889 limits assumed): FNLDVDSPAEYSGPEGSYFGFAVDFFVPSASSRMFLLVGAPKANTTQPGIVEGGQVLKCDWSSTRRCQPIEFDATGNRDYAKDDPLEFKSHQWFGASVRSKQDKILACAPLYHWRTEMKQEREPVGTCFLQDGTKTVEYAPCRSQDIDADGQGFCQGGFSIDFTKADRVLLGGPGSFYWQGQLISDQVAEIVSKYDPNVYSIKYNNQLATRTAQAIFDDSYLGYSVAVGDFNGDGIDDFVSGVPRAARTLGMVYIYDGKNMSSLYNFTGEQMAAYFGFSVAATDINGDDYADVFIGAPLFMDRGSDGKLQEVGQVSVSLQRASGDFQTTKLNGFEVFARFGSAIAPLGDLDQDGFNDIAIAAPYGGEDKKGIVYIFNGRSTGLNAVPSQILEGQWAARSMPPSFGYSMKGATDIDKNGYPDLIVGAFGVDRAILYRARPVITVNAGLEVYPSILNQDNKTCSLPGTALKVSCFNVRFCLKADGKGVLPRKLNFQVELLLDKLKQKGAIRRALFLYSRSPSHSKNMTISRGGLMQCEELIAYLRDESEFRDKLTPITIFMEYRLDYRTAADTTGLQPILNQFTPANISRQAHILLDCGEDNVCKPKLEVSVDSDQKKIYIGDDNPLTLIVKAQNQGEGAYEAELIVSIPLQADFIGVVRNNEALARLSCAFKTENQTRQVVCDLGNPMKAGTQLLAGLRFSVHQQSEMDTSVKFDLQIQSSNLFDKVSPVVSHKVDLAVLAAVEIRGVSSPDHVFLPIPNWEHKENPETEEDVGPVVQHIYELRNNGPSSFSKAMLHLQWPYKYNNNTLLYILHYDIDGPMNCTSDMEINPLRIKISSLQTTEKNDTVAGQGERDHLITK
T1 sequence (P06756 891-1048 partner limits assumed): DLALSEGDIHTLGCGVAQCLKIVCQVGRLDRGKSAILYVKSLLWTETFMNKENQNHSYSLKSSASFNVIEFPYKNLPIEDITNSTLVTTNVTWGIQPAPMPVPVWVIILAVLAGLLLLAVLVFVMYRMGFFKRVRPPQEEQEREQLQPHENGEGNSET
T1 sequence (P05106 27-788): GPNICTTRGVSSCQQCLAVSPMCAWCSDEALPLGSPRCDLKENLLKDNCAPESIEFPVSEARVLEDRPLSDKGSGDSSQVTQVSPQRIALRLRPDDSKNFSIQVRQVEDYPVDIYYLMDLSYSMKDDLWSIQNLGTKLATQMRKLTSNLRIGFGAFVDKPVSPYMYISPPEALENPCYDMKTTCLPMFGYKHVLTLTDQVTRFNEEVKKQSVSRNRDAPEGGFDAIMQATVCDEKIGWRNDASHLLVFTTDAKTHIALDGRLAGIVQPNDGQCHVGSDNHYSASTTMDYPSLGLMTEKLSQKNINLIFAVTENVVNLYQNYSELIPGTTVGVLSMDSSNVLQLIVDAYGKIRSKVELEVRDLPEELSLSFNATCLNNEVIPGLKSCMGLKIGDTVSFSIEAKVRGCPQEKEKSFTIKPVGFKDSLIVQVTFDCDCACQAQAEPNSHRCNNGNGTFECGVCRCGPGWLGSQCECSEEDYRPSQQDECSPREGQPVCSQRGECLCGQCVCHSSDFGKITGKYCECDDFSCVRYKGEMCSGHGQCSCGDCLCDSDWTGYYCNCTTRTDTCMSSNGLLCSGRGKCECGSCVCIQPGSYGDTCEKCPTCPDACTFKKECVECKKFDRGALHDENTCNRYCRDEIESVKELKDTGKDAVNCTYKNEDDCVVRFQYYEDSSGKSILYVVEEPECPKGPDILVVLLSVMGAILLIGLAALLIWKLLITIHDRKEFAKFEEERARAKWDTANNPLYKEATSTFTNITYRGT
Text: Human vitronectin (Vn) is isolated from human plasma and purified by affinity chromatography by the method of Yatohgo et. al., (Cell Structure and Function 13:281-292 [1988]).
Human vitronection receptor (VnR) is purified from human placenta by the method of Pytela et al., (Methods Enzymol., 144:475 [1987]). Alternatively the αvβ3 receptor can be purified from some cell lines (e.g., human embryonic kidney 293 cells) transfected with DNA sequences for both the αv and β3 subunits. The subunits are purified by employing octylglucoside extraction followed by Con-A, Heparin-Sepharose, and S-300 Chromatography.
Anti-GP IIb IIIa monoclonal antibodies specific for human GP IIIa are prepared by the method of Newman et al. (Blood, 65:227-232 [1985]), or a similar procedure. This mouse Mab is specific for the β3 subunit of the vitronectin receptor.
Rabbit Fab 2 anti-mouse Fc fragment horse radish peroxidase conjugate (anti-MuFc HRP) is obtained from PelFreeze (cat. no. 715305-1).
Maxisorp microtiter plates are coated with 2 μg/ml human vitronectin dissolved in PBS ([…]) and stored overnight at 4° C. The plates are washed two times with PBS-0.05% Tween-20 (wash buffer) and blocked by incubating with about 150 μl/well of assay buffer (1%, BSA [RIA grade or better] in 50 mM Tris-HCl, 100 mM NaCl, 1 mM MgCl2, CaCl2, MnCl2 pH 7.4) for 60 minutes. Dilutions of standards are prepared and putative inhibitors (Table 3) are dissolved in assay buffer. The blocked plates are emptied and 25 μl/well of inhibitor or standard solution is added to each well. Twenty-five μl of a 30 μg/ml solution of purified αvβ3 in assay buffer is pipetted into the coated plate. The final concentration of receptor in the assay well is about 15 μg/ml. The plate is incubated on a shaker for 60 minutes. Meanwhile, for each microtite plate, 6 ml buffer solution containing 1.5 μg/ml of mouse monoclonal antibody specific for β3 is prepared. To this solution is added μl of the secondary antibody, which is anti-mouse-Fc-HRP antibody conjugate. For example, for one plate, prepare 6 ml of a 1.5 μg/ml mouse Mab solution to which is added 1 μl of anti-mouse-Fc-HRP antibody stock, (this represents a 1:6000 dilution of the antibody - HRP conjugate). This mixture is allowed to incubate during the receptor-inhibitor incubation. The assay plates are washed 4 times with PBS-Tween and 50 μl/well of the antibody mixture is then pipetted into the plate for a 60 minute incubation. The plate is washed 4 times and the color reaction is developed with 50 μl/well of 0.67 mg/ml o-phenyldiamine in PBS containing 0.012% H2 O2. Alternatively, 16 mM citric acid, 50 mM Na2 PO4 at pH 5.0 can be used as a substrate buffer. The reaction is stopped with 50 μl/well 1M H2 SO4. The plates are read at 492-405 nm and the data analyzed by four-parameter fit.

[4] = target: human platelet rich plasma (PRP) (Homo sapiens, UniProt P05106+P08514); assay: In Vitro Human Platelet Aggregation Assay; format: cell-based; details: human PRP; read-out: Human Platelet Aggregation IC50
Description: Platelet aggregation assays are performed in human platelet rich plasma (PRP). Fifty milliliters of whole human blood (9 parts) is drawn on 3.6% sodium citrate (1 part) from a donor who has not taken aspirin or related medications for at least two weeks. The blood is centrifuged at 160×g for 10 minutes at 22° C. and allowed to stand for 5 minutes after which the PRP is decanted. Platelet poor plasma (PPP) is isolated from the remaining blood after centrifugation at 2000×g for 25 minutes. The platelet count of the PRP is diluted to about 300,000 platelets per microliter with PPP.
A 225 μl aliquot of PRP plus 25 μl of either a dilution of the test inhibitor sample or a control (PBS) is incubated for 5 minutes in a Chrono-log Whole Blood Aggregometer at 25° C. An aggregating agent (collagen, 1 μg/ml; U46619, 100 ng/ml; or ADP, 17 μM) is added and the transmission is recorded.

GP IIb IIIa [5] = target: T2, GP IIb IIIa (Homo sapiens, UniProt P05106+P08514); assay: GP IIb IIIa -von Willebrand factor (vWF) ELISA Assay; format: binding; set-up: GP IIb IIIa, prepared by the method of Fitzgerald et al; from tissue; details: GP IIb IIIa-coated plates, vWF; read-out: ELISA IC50 GPIIb IIIa vWF
Description: Microtiter plates are coated with 1.0 μg/ml GP IIb IIIa, prepared by the method of Fitzgerald et al., (Anal. Biochem. 151:169-177 [1985]) and allowed to incubate overnight in coat buffer. The plates are then washed three times in wash buffer (0.05% Tween 20 in PBS) and 150 μl of assay buffer is added and allowed to incubate for 1-2 hours at room temperature on plate shaker. The plates are washed three times and 50 μl of 2x inhibitor in assay buffer (Assay buffer: 0.5% BSA/50 mM Tris, 100 mM NaCl, 1.0 mM CaCl2, 1.0mM MgCl2, 1.0 mM MnCl2; coat buffer is the same but without BSA) is added. Fifty μl of 4.0 μg/ml vWF (prepared as described by Ledford et al., Thrombosis and Haemostasis, 64(4): 569-575 [1990]) in assay buffer is then added and allowed to incubate for one hour at room temperature on plate-shaker. The plates are washed three times and the antibody mixture is added (1:5000 of mouse anti-vWF and 1:5000 of rabbit-anti-mouse-Fc-HRP, both commercially available) in assay buffer and incubated for 1 hour at room temperature on plate-shaker. Plates are again washed three times and 100 μl of substrate solution (10 mg OPD, 6.5 μl H2 O2, 15 ml phosphate citrate buffer) is added and incubated at room temperature. The color change of OPD/H2 O2 reagent is read at 492 nm with a 405 nm reference wavelength on the filter photometer.

Fibronectin Receptor [6] = target: T3, Fibronectin Receptor (Homo sapiens, UniProt P05556+P08648); assay: Human Fibronectin-Fibronectin Receptor ELISA Assay; format: binding; set-up: octylglucoside (OG) extracted human placenta; from tissue; host or cells: human placenta; details: human placenta fibronectin receptor, fibronectin-coated plates; read-out: ELISA IC50 Fibronectin FnR
T3 sequence (P08648 42-894 limits assumed): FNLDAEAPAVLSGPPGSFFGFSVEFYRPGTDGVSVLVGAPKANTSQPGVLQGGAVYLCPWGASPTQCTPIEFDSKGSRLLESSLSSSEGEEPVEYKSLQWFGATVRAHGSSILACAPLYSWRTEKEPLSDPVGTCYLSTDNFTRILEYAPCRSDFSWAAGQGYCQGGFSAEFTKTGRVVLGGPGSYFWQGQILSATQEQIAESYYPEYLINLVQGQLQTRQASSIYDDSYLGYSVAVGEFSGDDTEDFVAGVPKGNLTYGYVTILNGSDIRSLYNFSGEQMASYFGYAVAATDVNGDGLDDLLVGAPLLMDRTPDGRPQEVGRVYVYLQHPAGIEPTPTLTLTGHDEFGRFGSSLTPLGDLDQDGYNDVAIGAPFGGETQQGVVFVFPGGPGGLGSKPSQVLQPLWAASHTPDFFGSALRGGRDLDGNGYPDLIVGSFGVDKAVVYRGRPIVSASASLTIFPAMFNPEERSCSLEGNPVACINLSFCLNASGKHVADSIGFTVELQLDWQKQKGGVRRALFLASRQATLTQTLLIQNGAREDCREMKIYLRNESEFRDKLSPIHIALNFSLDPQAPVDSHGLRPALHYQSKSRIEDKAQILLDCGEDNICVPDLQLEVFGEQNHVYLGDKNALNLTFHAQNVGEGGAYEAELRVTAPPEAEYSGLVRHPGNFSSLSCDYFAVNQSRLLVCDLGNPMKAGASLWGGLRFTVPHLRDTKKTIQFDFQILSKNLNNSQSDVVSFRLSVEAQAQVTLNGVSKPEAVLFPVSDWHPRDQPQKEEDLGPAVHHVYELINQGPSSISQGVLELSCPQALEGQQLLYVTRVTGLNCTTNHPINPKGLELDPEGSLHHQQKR
T3 sequence (P08648 895-1049 partner limits assumed): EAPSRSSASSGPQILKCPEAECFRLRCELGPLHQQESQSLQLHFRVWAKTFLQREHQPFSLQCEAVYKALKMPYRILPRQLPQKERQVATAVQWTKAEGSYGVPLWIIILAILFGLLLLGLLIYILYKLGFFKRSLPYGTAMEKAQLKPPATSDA
T3 sequence (P05556 21-798): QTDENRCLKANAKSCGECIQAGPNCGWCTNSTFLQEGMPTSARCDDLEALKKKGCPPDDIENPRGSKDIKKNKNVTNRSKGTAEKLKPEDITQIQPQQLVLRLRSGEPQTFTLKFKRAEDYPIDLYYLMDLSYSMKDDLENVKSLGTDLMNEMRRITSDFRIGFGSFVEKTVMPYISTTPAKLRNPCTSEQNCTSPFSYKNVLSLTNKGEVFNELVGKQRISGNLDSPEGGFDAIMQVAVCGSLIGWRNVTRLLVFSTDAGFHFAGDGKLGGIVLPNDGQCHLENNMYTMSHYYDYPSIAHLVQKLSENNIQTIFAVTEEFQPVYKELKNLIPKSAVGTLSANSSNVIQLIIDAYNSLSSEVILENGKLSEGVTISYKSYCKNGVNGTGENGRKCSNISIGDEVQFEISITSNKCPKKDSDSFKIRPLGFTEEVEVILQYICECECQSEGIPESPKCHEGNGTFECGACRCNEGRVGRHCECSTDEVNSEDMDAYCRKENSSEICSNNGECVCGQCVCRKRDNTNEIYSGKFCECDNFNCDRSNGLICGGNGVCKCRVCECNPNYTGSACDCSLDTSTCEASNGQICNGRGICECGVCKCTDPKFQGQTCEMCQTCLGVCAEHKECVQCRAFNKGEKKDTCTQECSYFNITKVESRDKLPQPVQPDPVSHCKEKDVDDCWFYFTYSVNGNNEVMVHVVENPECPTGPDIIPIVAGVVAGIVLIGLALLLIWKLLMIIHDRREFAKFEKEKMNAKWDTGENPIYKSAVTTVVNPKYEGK
Description: Fibronectin receptor is purified according to the procedures of Pytela et al., (Methods Enzymol. 144:475 […]). Briefly, fibronectin receptor is purified employing an Arg-Gly-Asp affinity chromatography from (100 mM) octylglucoside (OG) extracted human placenta. The OG extract is filtered over Sepharose 6B GRGDSPK column. The column is washed three times with three column volumes of Tris-buffered saline (TBS) TBS, 1 mM CaCl2, and 25 mM OG. The receptor is eluted with TBS, 20 mM EDTA, and 25 mM Octyl thioglucoside, and is stored in 1 mM CaCl2, 1 mM MgCl2, at -80° C.
Microtiter plates are coated with 110 μl human fibronectin (at 2 μg/ml) in TBS. Plates are washed three times with TBS containing 0.05% Tween 20. Test inhibitors are then added after washing in 10 microliter aliquots. The fibronectin receptor is added in 2-fold serial dilutions with TBS containing 20 mM octyl glucoside and 2 mM MnCl2. Plates are incubated three hours at room temperature, and washed with 200 μl TBS-Tween 20 buffer. 100 μl of affinity-purffied rabbit anti-human fibronectin receptor antibody is added to the wells and the plates are incubated two hours, washed twice with TBS-Tween and once with distilled water. Affinity-purified goat anti-rabbit IgG conjugated to horseradish peroxidase (100 μl) is added to each well followed by incubation for 60 minutes at room temperature. Plates are again washed twice with TBS-Tween and distilled water. 100 μl of substrate mixture (10 mg o-phenylenediamine in 25 ml 0.1M citrate-phosphate buffer, pH 5.0 6 μ30% H2 O2) is added to the plates and allowed to develop. The development process is stopped by adding 50 μl of 4N H2 SO4 to each well and read at […].

[7] = tested on: New Zealand White rabbits; assay: Rabbit peripheral blood flow and CBT, laser Doppler series; format: in vivo; details: 1 mg intravenously over 2 minutes at 60 minutes, within 5 minutes, laser doppler probe
Description: In an alternative series of experiments, (Table 2 ) PBF was measured quantitatively with a laser Doppler flow probe (Perimed). The probe was positioned securely over the vascular bed of one ear and flow monitored continuously. Each inhibitor was infused and CBT measured in the opposing ear. No arterial catheter was placed for blood sampling, consequently XPA was not measured in these animals.
As a positive control, epinephrine was infused intravenously (1 mg over 2 minutes.) at 60 minutes. The resulting vasoconstriction reduced flow to near 0 flow units within 5 minutes.

vitronectin receptor = vitronectin receptor (Homo sapiens, UniProt P05106+P06756); details: cited from earlier work
Sequence of vitronectin receptor (P06756 31-889 limits assumed): as the sequence (P06756 31-889 limits assumed) above
Sequence of vitronectin receptor (P06756 891-1048 partner limits assumed): as the sequence (P06756 891-1048 partner limits assumed) above
Sequence of vitronectin receptor (P05106 27-788): as the sequence (P05106 27-788) above

Fibronectin Receptor [8] = target: T3, Fibronectin Receptor; details: Pierschbacher et al. 1987; cited from earlier work
GP IIb IIIa [9] = target: T2, GP IIb IIIa; details: Kirchofer et al. 1990; versus αvβ3 and α5β1; cited from earlier work

N=C(N)NCCC[C@H](NC(=O)[C@@H]1C[S+]([O-])CC(=O)N[C@H](Cc2ccc(O)cc2)C(=O)N[C@@H](CCCNC(=N)N)C(=O)NCC(=O)N[C@@H](CC(=O)O)C(=O)N1)C(N)=O (single isomer, unassigned) [7/32]
Rabbit % P.A. Inhibition (ex vivo) [1]: 99% | Rabbit BT Ratio ([2]; rabbit): 1.17

N=C(N)NCCC[C@@H]1NC(=O)[C@@H](Cc2ccc(O)cc2)NC(=O)C[S+]([O-])C[C@@H](C(=O)N[C@H](CCCNC(=N)N)C(N)=O)NC(=O)[C@H](CC(=O)O)NC(=O)CNC1=O (single isomer, unassigned) [7/34]
Rabbit % P.A. Inhibition (ex vivo) [1]: 64% | Rabbit BT Ratio ([2]; rabbit): 0.94

N=C(N)NCCC[C@@H]1NC(=O)[C@@H](Cc2ccc(O)c(Br)c2)NC(=O)C[S+]([O-])C[C@@H](C(=O)N[C@@H](CCCCN)C(N)=O)NC(=O)[C@H](CC(=O)O)NC(=O)CNC1=O (single isomer, unassigned) [7/36]
Rabbit % P.A. Inhibition (ex vivo) [1]: 91% | Rabbit BT Ratio ([2]; rabbit): 0.77

NCCCC[C@@H]1NC(=O)[C@@H](Cc2ccc(O)cc2)NC(=O)C(c2ccccc2)SC[C@@H](C(=O)O)NC(=O)[C@H](CC(=O)O)NC(=O)CNC1=O (single isomer, unassigned) [7/45, cyclo-S-phenylacetyl-dTyr--Lys--Gly--Asp--Cys--OH]
IC50 [3]: > 20000 nM | IC50 [4]: 220 nM | Rabbit BT Ratio ([2]; rabbit): 4.47 | IC50 (GP IIb IIIa [5]): 1 nM | IC50 (Fibronectin Receptor [6]): > 10000 nM

CC1(C)SCC(=O)N[C@H](Cc2ccc(O)cc2)C(=O)N[C@@H](CCCCN)C(=O)NCC(=O)N[C@@H](CC(=O)O)C(=O)N[C@@H]1C(=O)O [7/47] ({CH2CO}-[dY]KGD[Pen]-OH; thioether N-5)
Rabbit % P.A. Inhibition (ex vivo) [1]: 96% | cutaneous bleeding time, result in words [2]: prolongation of bleeding time in vivo in both the rabbit and dog model | Rabbit BT Ratio ([2]; rabbit): 8.57 | increase of cutaneous bleeding time compared to the undosed animal ([2]; rabbit, dose sufficient to achieve about 97% inhibition of platelet aggregation): 8.6 times

CNC[C@H](O)c1ccc(O)c(O)c1 [epinephrine]
peripheral blood flow after positive control [7]: ~0 flow units

Gly-Pen-Gly-Arg-Gly-Asp-Ser-Pro-Cys-Ala
effectiveness at inhibiting the vitronectin-vitronectin receptor interaction, cyclized versus uncyclized peptide (vitronectin receptor; Pierschbacher et al. 1987): 10 times | inhibition of the fibronectin-fibronectin receptor interaction, in words (Fibronectin Receptor [8]): ineffective

cyclic-1,7-VRGDSPDG
integrin selectivity, in words (vitronectin receptor; Kirchofer et al. 1990): preferentially inhibited αvβ3 (vitronectin receptor) binding to vitronectin

cyclic-2,10-GPenGHRGDLRCA
integrin selectivity, in words (GP IIb IIIa [9]): preferentially inhibits the binding of GP IIb IIIa to fibrinogen
